Laboratory results: ChEMBL document CHEMBL3091297, “Antiprion compounds that reduce PrP(Sc) levels in dividing and stationary-phase cells” (Bioorg Med Chem, 2013)

How the values were obtained:
[1] = cells; type: cell-based; conditions: Mus musculus, N2a-cl3, 120 h
[2] = in vitro; conditions: mouse, dividing ScN2a-cl3 cells
[3] = Inhibition of RML prion protein infected in mouse dividing ScN2a-cl3 cells expressing full length mouse PrP assessed as reduction of PrPsc level after 5 days by Western blotting analysis; type: cell-based; conditions: N2a-cl3, 120 h
[4] = system: N2a-cl3; test: Inhibition of RML prion protein infected in mouse stationary-phase ScN2a-cl3 cells expressing full length mouse PrP assessed as reduction of PrPsc level at 10 uM after 5 days by ELISA; type: cell-based
[5] = system: N2a-cl3; test: Inhibition of RML prion protein infected in mouse dividing ScN2a-cl3 cells expressing full length mouse PrP assessed as reduction of PrPsc level at 10 uM after 5 days by ELISA; type: cell-based
[6] = AUClast in FVB mouse plasma at 10 mg/kg, po qd; type: ADME, organism-based; design: time 0 - last, dose 10 mg/kg, route oral
[7] = Ratio of AUClast in FVB mouse brain to FVB mouse plasma; type: ADME; conditions: read-out: Ratio AUC
[8] = Cmax in FVB mouse plasma at 10 mg/kg, po qd; type: ADME, organism-based; design: dose 10 mg/kg, route oral
[9] = AUClast in FVB mouse brain at 10 mg/kg, po qd; type: ADME, organism-based; design: time 0 - last, dose 10 mg/kg, route oral
[10] = Inhibition of RML prion protein infected in mouse stationary-phase ScN2a-cl3 cells expressing full length mouse PrP assessed as reduction of PrPsc level after 5 days; type: cell-based; conditions: N2a-cl3, 120 h
[11] = Cytotoxicity against mouse stationary-phase ScN2a-cl3 cells assessed as cell viability after 5 days by calcein-AM staining-based fluorescence assay; design: species or system N2a-cl3; conditions: read-out: LC50

Row | SMILES | EC50 [1] [nM] | EC50 [3] [nM] | inhibition [4] [%] | inhibition [5] [%] | other results
1 | COc1ccc(-c2ccc3c(N)c(C(=O)Nc4ccc(F)cc4)sc3n2)cc1 | 140 | – | – | – | CC50 at 120 h [2]: > 10000 nM
2 | COc1ccc2cc3c(N)c(C(=O)Nc4ccc(C(C)=O)cc4)sc3nc2c1 | 80 | 60 | – | – | CC50 at 120 h [2]: > 10000 nM
3 | COc1ccc(-c2ccc3c(N)c(C(=O)Nc4ccc(SC)cc4)sc3n2)cc1 | 290 | – | – | – | CC50 at 120 h [2]: > 10000 nM
4 | CC(=O)c1ccc(N2CCN(Cc3ccccc3)CC2)cc1 | 710 | 620 | – | – | –
5 | O=C(Nc1ccc(Cl)cc1)Nc1ccc(C(F)(F)F)cc1Cl | – | – | 63 | 17 | –
6 | CCOc1ccc(NC(=O)c2cc3ccccc3cc2O)cc1 | 130 | 40 | – | – | –
7 | CC(=O)c1ccc(N2CCN(Cc3c(C)n(C)n(-c4ccccc4)c3=O)CC2)cc1 | – | – | 35 | 64 | –
8 | O=C(Nc1nc(-c2ccc3ccccc3c2)cs1)C1CC1 | 990 | 570 | – | – | –
9 | CCc1ccc(-c2cn3cc(C)sc3n2)cc1 | 1780 | 520 | – | – | –
10 | O=C(Nc1ccc(F)c(Cl)c1)Nc1ccc(Cl)c(Cl)c1 | – | – | 61 | 92 | –
11 | COc1ccccc1OCCNCC(O)COc1cccc2[nH]c3ccccc3c12 (stereo not drawn) [CARVEDILOL] | 2280 | – | – | – | –
12 | COc1ccc(-c2cc(-c3ccc(C)cc3O)[nH]n2)cc1 | 260 | 120 | – | – | –
13 | COc1ccc(C(=O)Nc2ccc(-c3csc(C)n3)cc2)cc1 | 400 | 160 | – | – | –
14 | c1cncc(-c2nc(-c3c[nH]c4ccccc34)cs2)c1 | 270 | 830 | – | – | –
15 | COc1ccc(-c2cc(-c3ccc(OC)cc3O)[nH]n2)cc1 | 70 | 100 | – | – | –
16 | O=C(Nc1ccc(Br)cc1)Nc1cc(Cl)cc(Cl)c1 | – | – | 51 | 91 | –
17 | COc1cc(CNCCO)cc(Br)c1OCc1ccccc1Cl | 4830 | 2740 | – | – | –
18 | COc1ccc(-c2ccc3c(N)c(C(=O)Nc4ccc(F)cc4)sc3n2)cc1OC | 240 | – | – | – | CC50 at 120 h [2]: > 10000 nM
19 | CCN1CCN(c2ccc(Nc3ccnc4cc5ccccc5cc34)cc2)CC1 | – | – | 51 | 76 | –
20 | N#Cc1sc2nc(-c3ccc4c(c3)OCO4)ccc2c1N | 980 | 520 | – | – | AUC(0-t) [6]: 1.56 µM·h; Kp [7]: 4.72; Cmax [8]: 130 nM; AUC(0-t) [9]: 7.36 µM·h
21 | CC(=O)c1ccc(N2CCN(Cc3cccc(Cl)c3)CC2)cc1 | – | – | 31 | 84 | –
22 | O=C(Nc1ccc(Cl)c(Cl)c1)NC(CC(=O)c1ccc([N+](=O)[O-])cc1)C(Cl)(Cl)Cl (stereo not drawn) | – | – | 61 | 83 | –
23 | COc1ccc(-c2ccc3c(N)c(C(=O)Nc4cc(F)ccc4F)sc3n2)cc1 | > 10000 | – | – | – | CC50 at 120 h [2]: > 10000 nM
24 | Cc1[nH]c2ccccc2c1-c1csc(-c2cccnc2)n1 | 3130 | 1700 | – | – | –

Row | SMILES | EC50 [1] [nM] | EC50 [3] [nM] | inhibition [4] [%] | inhibition [5] [%] | other results
25 | O=C(Nc1ccccc1)Nc1ccc(F)c(Cl)c1 | – | – | 56 | 87 | –
26 | CC(=O)c1ccc(N2CCN(CC(C)CCC=C(C)C)CC2)cc1 (stereo not drawn) | – | – | 55 | 78 | –
27 | N#Cc1ccc(/C=C/c2ccc(F)cc2)cc1 | 1520 | 530 | – | – | –
28 | CN1CCN(c2ccc(Nc3ccnc4cc(Cl)ccc34)cc2)CC1 | 1360 | 2070 | – | – | AUC(0-t) [6]: 0.82 µM·h; Kp [7]: 2.59; Cmax [8]: 410 nM; AUC(0-t) [9]: 2.12 µM·h
29 | COc1ccc2cc1Oc1ccc(cc1)C[C@H]1c3cc(c(OC)cc3CCN1C)Oc1c(OC)c(OC)cc3c1[C@H](C2)N(C)CC3 [FANCHININ] | 2150 | – | – | – | CC50 at 120 h [2]: 5010 nM
30 | Nc1c(/N=N/c2ccc(-c3ccc(/N=N/c4cc(S(=O)(=O)O)c5ccccc5c4N)cc3)cc2)cc(S(=O)(=O)O)c2ccccc12 [CONGO RED] | 450 | – | – | – | CC50 at 120 h [2]: > 10000 nM
31 | CC(=O)c1ccc(NC(=O)c2sc3nc(-c4cccs4)ccc3c2N)cc1 | 100 | – | – | – | CC50 at 120 h [2]: > 10000 nM
32 | CN(C)CCNc1nc(-c2ccc(Cl)cc2)nc2ccccc12 | 2650 | 2010 | – | – | –
33 | CCOc1ccc(/N=N/c2ccc(N)cc2N)cc1 [ETHOXAZENE] | 4760 | – | – | – | CC50 at 120 h [2]: > 10000 nM
34 | CN1CCc2cccc3c2[C@H]1Cc1ccc(O)c(O)c1-3 [APOMORPHINE] | > 10000 | – | – | – | CC50 at 120 h [2]: > 10000 nM
35 | CC(=O)c1ccc(N2CCN(Cc3ccc(F)cc3F)CC2)cc1 | – | – | 30 | 85 | –
36 | Cn1c(=N)n(CC(=O)c2ccc(Cl)cc2)c2ccccc21 | 7320 | 4970 | – | – | –
37 | Cc1ccc2[nH]c3c(c2c1)CCCC3NCC12CC3CC(CC(C3)C1)C2 (stereo not drawn) | – | – | 53 | 98 | –
38 | COc1ccc(-c2ccc3c(N)c(C(=O)Nc4cc(OC)c(OC)c(OC)c4)sc3n2)cc1 | 420 | – | – | – | CC50 at 120 h [2]: > 10000 nM
39 | CC(=O)c1ccc2c(c1)N(CCCN(C)C)c1ccccc1S2 [ACEPROMAZINE] | 6930 | – | – | – | CC50 at 120 h [2]: > 10000 nM
40 | COc1ccc(-c2nc3cc(NC(=O)c4ccc(OCc5ccccc5)cc4)ccc3o2)cc1 | 70 | 2570 | – | – | –
41 | CC(=O)c1ccc(N2CCN(Cc3ccccc3Cl)CC2)cc1 | – | – | 41 | 86 | –
42 | OCCNCc1cc(Br)ccc1OCc1ccc(Cl)cc1Cl | 4300 | 1990 | – | – | –
43 | O=C(Nc1nc(-c2ccc(-c3ccccc3)cc2)cs1)C1CC1 | 250 | 190 | – | – | –
44 | Cc1ccc2[nH]c3c(c2c1)CCCC3NC1CCCCC1 (stereo not drawn) | – | – | 48 | 27 | –
45 | Oc1ccc(/C=C/c2cc(O)cc(O)c2)cc1 [RESVERATROL] | 3060 | 580 | – | – | –
46 | COc1cccc(Nc2nc(N)c3ccccc3n2)c1 | 4020 | 5990 | – | – | –
47 | CC(=O)c1ccc(N2CCN(Cc3ccc(Br)s3)CC2)cc1 | – | – | 34 | 97 | –
48 | CCc1ccc(-c2cn3cc(C)ccc3n2)cc1 | 710 | 290 | – | – | –

Row | SMILES | EC50 [1] [nM] | EC50 [3] [nM] | inhibition [4] [%] | inhibition [5] [%] | other results
49 | Nc1c(C(=O)Nc2ccc3c(c2)OCCO3)sc2nc(-c3cccs3)ccc12 | 420 | – | – | – | CC50 at 120 h [2]: > 10000 nM
50 | COc1ccc(CCNC(=O)c2sc3nc(-c4cccs4)ccc3c2N)cc1OC | > 10000 | – | – | – | CC50 at 120 h [2]: > 10000 nM
51 | CCOc1ccc(C(=O)Nc2ccc3oc(-c4ccc(OC)cc4)nc3c2)cc1 | 60 | 130 | – | – | –
52 | CC(=O)c1ccc(N2CCN(Cc3cccnc3)CC2)cc1 | – | 890 | – | – | –
53 | Cc1ccc2[nH]c3c(c2c1)CCCC3NCCCN(C)C (stereo not drawn) | 1580 | – | 94 | 88 | EC50 [10]: 7500 nM; CC50 at 120 h [11]: > 10000 nM; CC50 at 120 h [2]: > 10000 nM
54 | COc1cc(N)c(-c2ccc3cc(OC)c(OC)cc3n2)cc1OC | 2560 | 1830 | – | – | –
55 | CC(=O)c1ccc(N2CCN(Cc3cccc(Br)c3)CC2)cc1 | – | – | 39 | 67 | –
56 | Nc1c(C(=O)Nc2ccc(F)cc2)sc2nc(-c3ccc4c(c3)OCO4)ccc12 | 750 | – | – | – | CC50 at 120 h [2]: > 10000 nM
57 | CC(=O)c1ccc(NC(=O)c2sc3nc4c(cc3c2N)CCCC4)cc1 | > 10000 | – | – | – | CC50 at 120 h [2]: > 10000 nM
58 | COc1ccc2[nH]c3c(OC)ncnc3c2c1 | – | – | 37 | 81 | –
59 | COc1ccc(-c2ccc3c(N)c(C(=O)Nc4ccc(OC)c(OC)c4)sc3n2)cc1 | > 10000 | – | – | – | CC50 at 120 h [2]: > 10000 nM
60 | COc1cc(CN2CCN(c3cccc(C)c3C)CC2)cc(Br)c1O | – | – | 48 | 22 | –
61 | O=C(Nc1ccc(Cl)cc1)Nc1ccc(Cl)c(F)c1 | – | – | 66 | 25 | –
62 | COc1ccc(CN2CCN(c3ccc(C(C)=O)cc3)CC2)c(C)c1C | – | – | 41 | 95 | –
63 | CN1C[C@H](C(=O)N[C@]2(C)O[C@@]3(O)[C@@H]4CCCN4C(=O)[C@H](Cc4ccccc4)N3C2=O)C[C@@H]2c3cccc4[nH]cc(c34)C[C@H]21 [DIHYDROERGOTAMINE] | 6440 | – | – | – | CC50 at 120 h [2]: > 10000 nM
64 | Nc1c(C(=O)Nc2cc(F)ccc2F)sc2nc(-c3ccncc3)ccc12 | 2220 | – | – | – | CC50 at 120 h [2]: > 10000 nM
65 | Clc1ccc(N2CCN(C3CCSC3)CC2)cc1 (stereo not drawn) | – | – | 51 | 42 | –
66 | CCc1ccc(-c2cn3ccccc3n2)cc1 | 9160 | 4720 | – | – | –
67 | Cn1c(=N)n(CC(=O)c2ccc(Br)cc2)c2ccccc21 | 2580 | 1450 | – | – | –
68 | COc1ccc(CNC(=O)c2sc3nc(-c4cccs4)ccc3c2N)cc1 | 1830 | – | – | – | CC50 at 120 h [2]: > 10000 nM
69 | CNCCc1c(-c2ccccc2)n(-c2ccccc2)c2ccccc12 | – | – | 46 | 81 | –
70 | Cc1ccc2c(c1)c1c(n2CC(O)CO)C(=O)CCC1 (stereo not drawn) | – | – | 39 | 14 | –
71 | c1ccc2cc(-c3cn4ccsc4n3)ccc2c1 | 6020 | 2490 | – | – | –
